Tests used:
rNsp5-L50F/E166A/L167F = assay type: cell-based, SARS-CoV-2; details: read-out: rNsp5-L50F/E166A/L167F EC50
rNsp5-L50F/E166V = assay type: cell-based, SARS-CoV-2; details: read-out: rNsp5-L50F/E166V EC50

For CC(C)(C)[C@H](NC(=O)C(F)(F)F)C(=O)N1C[C@H]2[C@@H]([C@H]1C(=O)N[C@H](C#N)C[C@@H]1CCNC1=O)C2(C)C [Nirmatrelvir, nirmatrelvir], the EC50 (rNsp5-L50F/E166A/L167F) was 0.63 µM and the EC50 (rNsp5-L50F/E166V) was > 1 µM.
